{"source": "patent US7579365B2", "about": "(ZIOPHRAM Oncology, Inc., priority 1998, dated 2009)", "key": {"[1]": {"tested_on": "L1210", "test": "L1210 leukemia model in vivo (% ILS, survival time)", "set-up": "species or system mouse", "settings": "for ILS at 46.4 mg/kg: read-out: % ILS L1210", "source_text": "In the hollow fiber assay, both compounds were almost equally strongly active, while on L 1210 D-24851 was markedly more strongly active after oral and intraperitoneal administration than D-24241."}, "[2]": {"tested_on": "L1210 cell line", "test": "XTT proliferation test/cytotoxicity test, L1210 cell line", "type": "cell-based, mouse", "settings": "for EC50: Mus musculus", "protocol": "(§1) In this test system, the effect of substances on the proliferation behavior of tumor cell lines is investigated. In the course of this, the cytotoxic potential of these substances is determined. The test method is described in Scudiero et al. 1988, Cancer Res. 48, 4827.\n(§2) The following tumor cell lines were employed in the investigations:\n(§3) The KB cell line an epidermal carcinoma of the oral cavity,\n(§4) the L1210 cell line a lymphatic leukemia of the mouse, the LNCAP cell line a prostate carcinoma and the SK-OV-3 cell line an ovarian carcinoma."}, "[3]": {"tested_on": "KB cell line", "test": "XTT proliferation test/cytotoxicity test, KB cell line", "type": "cell-based", "settings": "Homo sapiens, KB, read-out: XTT EC50 KB", "protocol": "as §1, §2, §3, §4"}, "[4]": {"tested_on": "LNCAP cell line", "test": "XTT proliferation test/cytotoxicity test, LNCAP cell line", "type": "cell-based", "settings": "Homo sapiens, read-out: XTT EC50 LNCaP", "protocol": "as §1, §2, §3, §4"}, "[5]": {"tested_on": "SK-OV-3 cell line", "test": "XTT proliferation test/cytotoxicity test, SK-OV-3 cell line", "type": "cell-based", "settings": "Homo sapiens", "protocol": "as §1, §2, §3, §4"}, "[6]": {"settings": "L1210, L1210 tumor cells, read-out: XTT EC50 L1210"}, "[7]": {"settings": "SK-OV-3, SK-OV-3 tumor cells, read-out: XTT EC50 SK-OV-3"}, "[8]": {"settings": "L1210, read-out: XTT EC50 L1210"}, "[9]": {"settings": "SK-OV-3, read-out: XTT EC50 SK-OV-3"}}, "note": "Like-named read-outs stand apart in the source and are kept apart here.", "data": [{"compound": "O=c1[nH]cc(F)c(=O)[nH]1", "note": "[5-Fluorouracil, reference compound]", "values": [{"measurement": "ILS at 147 mg/kg", "setting": "[1]; Mus musculus, L1210, ip, 1 × 147 mg/kg i.p.", "value": 72, "unit": "%"}, {"measurement": "ILS at 68.1 mg/kg", "setting": "[1]; Mus musculus, L1210, ip, 4 × 68.1 mg/kg i.p.", "value": 83, "unit": "%"}]}, {"compound": "N.N.O=C([O-])C1(C(=O)[O-])CCC1.[Pt+2]", "note": "[Carboplatin]", "values": [{"measurement": "% ILS L1210", "setting": "[1]; 1 × 100 mg/kg i.p.", "value": 41, "unit": "% ILS"}, {"measurement": "Tox. i.p.", "setting": "i.p. (Table 5)", "value": "≈158.0 mg/kg"}, {"measurement": "Tox. p.o.", "setting": "p.o. (Table 5)", "value": "≈841.0 p.o mg/kg"}]}, {"compound": "N.N.[Cl][Pt][Cl]", "note": "[Cisplatin, reference compound]", "values": [{"measurement": "XTT EC50 L1210", "setting": "[2]; L1210 tumor cells", "value": "L1210 0.30 μg/ml"}, {"measurement": "% ILS L1210", "setting": "[1]; 1 × 3.16 mg/kg i.p.", "value": 38.9, "unit": "% ILS"}]}, {"compound": "O=P1(N(CCCl)CCCl)NCCCO1", "note": "(stereo not shown) [Cyclophosphamide, reference compound]", "values": [{"measurement": "ILS at 46.4 mg/kg", "setting": "[1]; Mus musculus, L1210, iv", "value": 40, "unit": "%"}, {"measurement": "Tox. i.v.", "setting": "i.v. (Table 5)", "value": "≈340.7 i.v. mg/kg"}]}, {"compound": "COc1cc([C@@H]2c3cc4c(cc3[C@@H](O[C@@H]3O[C@@H]5CO[C@@H](C)O[C@H]5[C@H](O)[C@H]3O)[C@H]3COC(=O)[C@H]23)OCO4)cc(OC)c1O", "note": "[Etoposide]", "values": [{"measurement": "ILS at 46.4 mg/kg", "setting": "[1]; Mus musculus, L1210, ip, 1 × 46.4 mg/kg i.p.", "value": 56, "unit": "%"}, {"measurement": "Tox. i.p.", "setting": "in vivo, ip", "value": "≈158.0 i.p. mg/kg"}, {"measurement": "Tox. i.v.", "setting": "in vivo, iv", "value": ">68.1", "unit": "i.v. mg/kg"}]}, {"compound": "O=C(Nc1cccnc1)C(=O)c1cn(Cc2ccc(F)cc2)c2ccccc12", "note": "[Example 3, N-(Pyridin-3-yl)-[1-(4-fluorobenzyl)indol-3-yl]glyoxylamide]", "values": [{"measurement": "EC50", "setting": "[3]; KB tumor cells", "value": 1.75, "unit": "µg/mL"}, {"measurement": "EC50", "setting": "[2]; [6]", "value": 1.75, "unit": "µg/mL"}, {"measurement": "EC50", "setting": "[4]; LNCaP tumor cells", "value": 9.25, "unit": "µg/mL"}, {"measurement": "EC50", "setting": "[5]; [7]", "value": 1.75, "unit": "µg/mL"}]}, {"compound": "O=C(Nc1cccnc1)C(=O)c1cn(Cc2ccccc2)c2ccccc12", "note": "[Example 4, N-(Pyridin-3-yl)-(1-benzylindol-3-yl)glyoxylamide]", "values": [{"measurement": "EC50", "setting": "[3]", "value": 17.5, "unit": "µg/mL"}, {"measurement": "EC50", "setting": "[2]; [8]", "value": 1.75, "unit": "µg/mL"}, {"measurement": "EC50", "setting": "[4]; LNCaP", "value": "> 31.6", "unit": "µg/mL"}, {"measurement": "EC50", "setting": "[5]; [9]", "value": 9.2, "unit": "µg/mL"}]}, {"compound": "O=C(Nc1ccc(F)cc1)C(=O)c1cn(Cc2ccc(F)cc2)c2ccccc12", "note": "[Example 6, N-(4-Fluorophenyl)-[1-(4-fluorobenzyl)indol-3-yl]glyoxylamide]", "values": [{"measurement": "EC50", "setting": "[3]; KB tumor cells", "value": 3.1, "unit": "µg/mL"}, {"measurement": "EC50", "setting": "[2]; [6]", "value": 1.75, "unit": "µg/mL"}, {"measurement": "EC50", "setting": "[4]; LNCaP tumor cells", "value": "> 31.6", "unit": "µg/mL"}, {"measurement": "EC50", "setting": "[5]; [7]", "value": 17.5, "unit": "µg/mL"}]}, {"compound": "O=C(Nc1ccncc1)C(=O)c1cn(Cc2ccccc2)c2ccccc12", "note": "[Example 9, N-(Pyridin-4-yl)-(1-benzylindol-3-yl)glyoxylamide]", "values": [{"measurement": "EC50", "setting": "[3]", "value": 0.05, "unit": "µg/mL"}, {"measurement": "EC50", "setting": "[2]; [8]", "value": 0.09, "unit": "µg/mL"}, {"measurement": "EC50", "setting": "[4]; LNCaP", "value": 3.24, "unit": "µg/mL"}, {"measurement": "EC50", "setting": "[5]; [9]", "value": 1.75, "unit": "µg/mL"}]}, {"compound": "O=C(Nc1ccncc1)C(=O)c1cn(Cc2cccnc2)c2ccccc12", "note": "[Example 10, N-(Pyridin-4-yl)-[1-(3-pyridylmethyl)indol-3-yl]glyoxylamide]", "values": [{"measurement": "EC50", "setting": "[3]; KB tumor cells", "value": 4.06, "unit": "µg/mL"}, {"measurement": "EC50", "setting": "[2]; [6]", "value": 1.75, "unit": "µg/mL"}, {"measurement": "EC50", "setting": "[4]; LNCaP tumor cells", "value": "> 31.6", "unit": "µg/mL"}, {"measurement": "EC50", "setting": "[5]; [7]", "value": 7.22, "unit": "µg/mL"}]}, {"compound": "O=C(Nc1ccc(F)cc1)C(=O)c1cn(Cc2ccccn2)c2ccccc12", "note": "[Example 11, N-(4-Fluorophenyl)-[1-(2-pyridylmethyl)indol-3-yl]glyoxylamide]", "values": [{"measurement": "EC50", "setting": "[3]; KB tumor cells", "value": 4.59, "unit": "µg/mL"}, {"measurement": "EC50", "setting": "[2]; [6]", "value": 1.75, "unit": "µg/mL"}, {"measurement": "EC50", "setting": "[4]; LNCaP tumor cells", "value": 17.5, "unit": "µg/mL"}, {"measurement": "EC50", "setting": "[5]; [7]", "value": 4.25, "unit": "µg/mL"}]}, {"compound": "O=C(Nc1ccc(F)cc1)C(=O)c1cn(Cc2cccnc2)c2ccccc12", "note": "[Example 12, N-(4-Fluorophenyl)-[1(3-pyridylmethyl)indol-3-yl]glyoxylamide]", "values": [{"measurement": "EC50", "setting": "[3]; KB tumor cells", "value": "> 31.6", "unit": "µg/mL"}, {"measurement": "EC50", "setting": "[2]; [6]", "value": 0.017, "unit": "µg/mL"}, {"measurement": "EC50", "setting": "[4]; LNCaP tumor cells", "value": "> 31.6", "unit": "µg/mL"}, {"measurement": "EC50", "setting": "[5]; [7]", "value": "> 31.6", "unit": "µg/mL"}]}, {"compound": "O=C(Nc1ccncc1)C(=O)c1cn(Cc2ccccc2Cl)c2ccccc12", "note": "[Example 14, N-(Pyridin-4-yl)-[1-(2-chlorobenzyl)indol-3-yl]glyoxylamide]", "values": [{"measurement": "EC50", "setting": "[3]; KB tumor cells", "value": 1.75, "unit": "µg/mL"}, {"measurement": "EC50", "setting": "[2]; [6]", "value": 1.75, "unit": "µg/mL"}, {"measurement": "EC50", "setting": "[4]; LNCaP tumor cells", "value": 17.5, "unit": "µg/mL"}, {"measurement": "EC50", "setting": "[5]; [7]", "value": 2.58, "unit": "µg/mL"}]}, {"compound": "O=C(Nc1ccccn1)C(=O)c1cn(Cc2ccc(F)cc2)c2ccccc12", "note": "[Example 15, N-(Pyridin-2-yl)-[1-(4-fluorobenzyl)indol-3-yl]glyoxylamide]", "values": [{"measurement": "EC50", "setting": "[3]", "value": "> 31.6", "unit": "µg/mL"}, {"measurement": "EC50", "setting": "[2]; [8]", "value": 3.1, "unit": "µg/mL"}, {"measurement": "EC50", "setting": "[4]; LNCaP", "value": "> 31.6", "unit": "µg/mL"}, {"measurement": "EC50", "setting": "[5]; [9]", "value": "> 31.6", "unit": "µg/mL"}]}, {"compound": "O=C(Nc1ccncc1)C(=O)c1cn(Cc2ccccn2)c2ccccc12", "note": "[Example 16, N-(Pyridin-4-yl)-[1-(2-pyridylmethyl)indol-3-yl]glyoxylamide]", "values": [{"measurement": "EC50", "setting": "[3]; KB tumor cells", "value": 4.59, "unit": "µg/mL"}, {"measurement": "EC50", "setting": "[2]; [6]", "value": 1.75, "unit": "µg/mL"}, {"measurement": "EC50", "setting": "[4]; LNCaP tumor cells", "value": 17.5, "unit": "µg/mL"}, {"measurement": "EC50", "setting": "[5]; [7]", "value": 4.25, "unit": "µg/mL"}]}, {"compound": "CN(Cc1cnc2nc(N)nc(N)c2n1)c1ccc(C(=O)N[C@@H](CCC(=O)O)C(=O)O)cc1", "note": "[Methotrexate, reference compound]", "values": [{"measurement": "EC50", "setting": "[3]; KB tumor cells", "value": "~0.007", "unit": "µg/mL"}, {"measurement": "EC50", "setting": "[5]; [7]", "value": "> 31.6", "unit": "µg/mL"}, {"measurement": "ILS at 53.7 mg/kg", "setting": "[1]; Mus musculus, L1210, ip, 1 × 53.7 mg/kg i.p.", "value": 39, "unit": "%"}]}]}
